The record followed here is PMC4321377, “Multiple signals modulate the activity of the complex sensor kinase TodS” (Microbial Biotechnology, 2014).

As a reminder, the EC50 is the concentration needed to bring the measured effect to its halfway point. A higher EC50 goes with lower potency in that assay.

The target of the test is T1, TodS (Pseudomonas putida, UniProt E0X9C7).
T1 construct: full-length TodS, N-terminal His tag
The test can be described thus: autophosphorylation assay with [γ-32P]ATP of purified TodS; ITC showed an exothermic chemical reaction. The test is classed as biochemical.

T1 sequence (E0X9C7 whole entry): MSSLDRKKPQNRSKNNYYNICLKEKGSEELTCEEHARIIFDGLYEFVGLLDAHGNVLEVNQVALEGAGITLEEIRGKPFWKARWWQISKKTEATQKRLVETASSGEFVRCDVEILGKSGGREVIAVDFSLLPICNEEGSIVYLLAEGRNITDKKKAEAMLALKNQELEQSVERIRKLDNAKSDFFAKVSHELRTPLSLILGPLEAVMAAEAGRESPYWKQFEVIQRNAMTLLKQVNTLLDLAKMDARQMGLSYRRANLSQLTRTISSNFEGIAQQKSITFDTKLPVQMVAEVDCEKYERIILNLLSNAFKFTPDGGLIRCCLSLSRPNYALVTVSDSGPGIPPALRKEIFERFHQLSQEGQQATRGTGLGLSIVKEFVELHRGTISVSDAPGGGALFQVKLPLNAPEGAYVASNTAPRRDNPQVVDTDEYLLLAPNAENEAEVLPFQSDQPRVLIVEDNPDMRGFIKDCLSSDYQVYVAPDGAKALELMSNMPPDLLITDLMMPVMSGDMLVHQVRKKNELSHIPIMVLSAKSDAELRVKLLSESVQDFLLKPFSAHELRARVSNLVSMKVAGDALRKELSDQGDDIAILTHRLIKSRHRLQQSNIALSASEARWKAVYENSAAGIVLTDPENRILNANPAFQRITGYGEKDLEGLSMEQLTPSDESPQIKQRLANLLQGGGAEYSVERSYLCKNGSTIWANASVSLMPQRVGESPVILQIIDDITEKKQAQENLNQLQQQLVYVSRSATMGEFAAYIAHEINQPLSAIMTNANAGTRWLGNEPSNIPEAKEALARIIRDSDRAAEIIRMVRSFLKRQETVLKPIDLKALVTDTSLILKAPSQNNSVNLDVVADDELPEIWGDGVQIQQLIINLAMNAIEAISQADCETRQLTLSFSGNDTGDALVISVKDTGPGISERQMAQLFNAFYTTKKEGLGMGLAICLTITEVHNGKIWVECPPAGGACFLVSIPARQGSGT

`CC1=CC(=O)c2ccccc2C1=O` [menadione, 2-methyl-l,4-naphthoquinone] registered an EC50 of 170 ± 25 µM.
